# According to paper PMC8364686, “Safety, tolerability, pharmacokinetics and pharmacodynamics of single oral doses of BI 187004, an inhibitor of 11beta-hydroxysteroid dehydrogenase-1, in healthy male volunteers with overweight or obesity” (Clinical Diabetes and Endocrinology, 2021):
# Assay: Plasma pharmacokinetics of BI 187004 after single oral doses (LC–MS/MS)
# Details: male, human, plasma, po; for concentration at 6 h: planned time 6 h; for concentration at 8 h: planned time 8 h; for concentration at 10 h: planned time 10 h; for concentration at 12 h: planned time 12 h; for concentration at 36 h: planned time 36 h; for concentration at 48 h: planned time 48 h; for concentration at 72 h: planned time 72 h; for concentration at 96 h: planned time 96 h; for concentration at 0.5 h: planned time 0.5 h; for concentration at 1 h: planned time 1 h; for concentration at 1.5 h: planned time 1.5 h; for concentration at 2 h: planned time 2 h; for concentration at 2.5 h: planned time 2.5 h; for concentration at 3 h: planned time 3 h; for concentration at 4 h: planned time 4 h; for concentration at 5 h: planned time 5 h
# [1] = 240 mg, BI 187004 plasma concentrations, gMean, 240 mg single oral
# [2] = 360 mg, BI 187004 plasma concentrations, 360 mg single oral, individual subjects
# [3] = 360 mg, BI 187004 plasma concentrations, Max, 360 mg single oral
# [4] = 360 mg, BI 187004 plasma concentrations, Mean, 360 mg single oral
# [5] = 360 mg, BI 187004 plasma concentrations, Median, 360 mg single oral
# [6] = 360 mg, BI 187004 plasma concentrations, Min, 360 mg single oral
# [7] = 360 mg, BI 187004 plasma concentrations, gMean, 360 mg single oral
# Procedure: This was a randomized, double-blind, placebo-controlled, single rising dose study conducted at a single center in Germany. […] Follow-up on an ambulatory basis was performed between 11 and 15 days after study drug administration. […] At the time of use the oral solution for dosing was prepared using the PFOS and a co-supplied aqueous solvent containing HP-beta-cyclodextrin 100 mg/mL. The lowest dose level solutions were prepared by further dilution of the lower concentration solution with additional solvent.
# For each accepted run, the acceptance criteria for the calibration standards and quality controls were met.
smiles,measurement,setting,value
N#Cc1ccc2c(c1)[C@H]1CCCN(C(=O)c3ccc4[nH]cnc4c3)[C@H]1C2 [BI 187004],concentration at 6 h,[1],3.28 µM
same,concentration at 8 h,[1],2.65 µM
same,concentration at 10 h,[1],2.6 µM
same,concentration at 12 h,[1],1.99 µM
same,concentration at 24 h,"240 mg, BI 187004 plasma concentrations, gMean, 240 mg single oral, planned time 24 h",2.13 µM
same,concentration at 36 h,[1],0.885 µM
same,concentration at 48 h,[1],0.465 µM
same,concentration at 72 h,[1],0.118 µM
same,concentration at 96 h,[1],0.0419 µM
same,concentration at 24 h,"240 mg, C24 gMean (%gCV), 240 mg single oral dose",2.13 µM
same,AUC(0-inf),360 mg,191 µM·h
same,AUC(0-t),360 mg,135 µM·h
same,Cmax,360 mg,13.4 µM
same,Tmax,360 mg,1 h
same,Vd/F,360 mg,110 L
same,half-life,360 mg,13.9 h
same,concentration at 6 h,[2],10.2 µM
same,concentration at 8 h,[2],9.51 µM
same,concentration at 12 h,[2],6.08 µM
same,concentration at 0.5 h,[3],16.8 µM
same,concentration at 1 h,[3],18.4 µM
same,concentration at 1.5 h,[3],15.9 µM
same,concentration at 2 h,[3],14.5 µM
same,concentration at 2.5 h,[3],14.6 µM
same,concentration at 3 h,[3],12.9 µM
same,concentration at 4 h,[3],12.2 µM
same,concentration at 5 h,[3],9.63 µM
same,concentration at 6 h,[3],10.2 µM
same,concentration at 8 h,[3],9.51 µM
same,concentration at 10 h,[3],7.68 µM
same,concentration at 12 h,[3],6.08 µM
same,concentration at 24 h,"360 mg, BI 187004 plasma concentrations, Max, 360 mg single oral, planned time 24 h",4.74 µM
same,concentration at 36 h,[3],1.99 µM
same,concentration at 48 h,[3],1.47 µM
same,concentration at 72 h,[3],0.516 µM
same,concentration at 96 h,[3],0.174 µM
same,concentration at 0.5 h,[4],11.5 µM
same,concentration at 1 h,[4],13.1 µM
same,concentration at 1.5 h,[4],11.5 µM
same,concentration at 2 h,[4],10.9 µM
same,concentration at 2.5 h,[4],10.3 µM
same,concentration at 3 h,[4],9.36 µM
same,concentration at 4 h,[4],9.59 µM
same,concentration at 5 h,[4],7.55 µM
same,concentration at 6 h,[4],7.25 µM
same,concentration at 8 h,[4],6.85 µM
same,concentration at 10 h,[4],5.5 µM
same,concentration at 12 h,[4],4.83 µM
same,concentration at 24 h,"360 mg, BI 187004 plasma concentrations, Mean, 360 mg single oral, planned time 24 h",2.84 µM
same,concentration at 36 h,[4],1.48 µM
same,concentration at 48 h,[4],0.898 µM
same,concentration at 72 h,[4],0.301 µM
same,concentration at 96 h,[4],0.095 µM
same,concentration at 0.5 h,[5],11.6 µM
same,concentration at 1 h,[5],13.3 µM
same,concentration at 1.5 h,[5],11.6 µM
same,concentration at 2 h,[5],10.8 µM
same,concentration at 2.5 h,[5],10.2 µM
same,concentration at 3 h,[5],9.34 µM
same,concentration at 4 h,[5],10.3 µM
same,concentration at 5 h,[5],7.87 µM
same,concentration at 6 h,[5],6.45 µM
same,concentration at 8 h,[5],6.27 µM
same,concentration at 10 h,[5],5.62 µM
same,concentration at 12 h,[5],4.63 µM
same,concentration at 24 h,"360 mg, BI 187004 plasma concentrations, Median, 360 mg single oral, planned time 24 h",2.66 µM
same,concentration at 36 h,[5],1.49 µM
same,concentration at 48 h,[5],0.869 µM
same,concentration at 72 h,[5],0.281 µM
same,concentration at 96 h,[5],0.0816 µM
same,concentration at 0.5 h,[6],5.8 µM
same,concentration at 1 h,[6],7.17 µM
same,concentration at 1.5 h,[6],6.45 µM
same,concentration at 2 h,[6],6.66 µM
same,concentration at 2.5 h,[6],5.66 µM
same,concentration at 3 h,[6],6.3 µM
same,concentration at 4 h,[6],5.67 µM
same,concentration at 5 h,[6],4.81 µM
same,concentration at 6 h,[6],5.79 µM
same,concentration at 8 h,[6],5.06 µM
same,concentration at 10 h,[6],3.36 µM
same,concentration at 12 h,[6],3.78 µM
same,concentration at 24 h,"360 mg, BI 187004 plasma concentrations, Min, 360 mg single oral, planned time 24 h",1.79 µM
same,concentration at 36 h,[6],0.83 µM
same,concentration at 48 h,[6],0.375 µM
same,concentration at 72 h,[6],0.0691 µM
same,concentration at 96 h,[6],0.0168 µM
same,concentration at 0.5 h,[7],10.8 µM
same,concentration at 1 h,[7],12.6 µM
same,concentration at 1.5 h,[7],11.1 µM
same,concentration at 2 h,[7],10.6 µM
same,concentration at 2.5 h,[7],9.71 µM
same,concentration at 3 h,[7],9.14 µM
same,concentration at 4 h,[7],9.32 µM
same,concentration at 5 h,[7],7.36 µM
same,concentration at 6 h,[7],7.11 µM
same,concentration at 8 h,[7],6.71 µM
same,concentration at 10 h,[7],5.3 µM
same,concentration at 12 h,[7],4.78 µM
same,concentration at 24 h,"360 mg, BI 187004 plasma concentrations, gMean, 360 mg single oral, planned time 24 h",2.69 µM
same,concentration at 36 h,[7],1.41 µM
same,concentration at 48 h,[7],0.814 µM
same,concentration at 72 h,[7],0.246 µM
same,concentration at 96 h,[7],0.0723 µM
same,concentration at 24 h,"360 mg, C24 gMean (%gCV), 360 mg single oral dose",2.69 µM
